Measurements published in patent US20250171495A1, “MUTLI-TARGETED SERINE PROTEASE INHIBITORS FOR TREATMENT OF CANCER AND VIRAL INFECTION” (Washington University, priority 2023, published 2025).
Where “and” joins values, the source holds several entries; their conditions need not be identical. Equal values may be shown once.

What was measured:
Type in all cases: biochemical
TMPRSS2 = TMPRSS2 (Homo sapiens, UniProt O15393); test: PS-SCL / HyCoSuL substrate specificity screening, TMPRSS2; conditions: for P2 Position Substrate Activity for TMPRSS2 (percent substrate cleavage/proteolysis): residue fixed at P2 position of substrate library
TMPRSS2, sequence (O15393 whole entry): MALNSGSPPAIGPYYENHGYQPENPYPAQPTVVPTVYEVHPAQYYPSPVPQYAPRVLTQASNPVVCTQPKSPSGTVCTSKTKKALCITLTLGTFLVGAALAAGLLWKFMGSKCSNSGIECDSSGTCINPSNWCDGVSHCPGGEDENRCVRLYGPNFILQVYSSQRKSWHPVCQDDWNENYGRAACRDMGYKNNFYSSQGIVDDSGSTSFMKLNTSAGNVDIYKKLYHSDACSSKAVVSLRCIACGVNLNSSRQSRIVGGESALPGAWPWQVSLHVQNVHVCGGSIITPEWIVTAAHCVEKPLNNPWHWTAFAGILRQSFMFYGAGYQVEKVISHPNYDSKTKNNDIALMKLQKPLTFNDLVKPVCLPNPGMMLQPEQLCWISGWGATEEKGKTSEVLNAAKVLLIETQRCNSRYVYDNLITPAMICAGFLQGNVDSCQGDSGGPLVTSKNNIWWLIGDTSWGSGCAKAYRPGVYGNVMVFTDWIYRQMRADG

hepsin = molecular target: T1, hepsin (Homo sapiens, UniProt P05981); test: HyCoSuL P4-P2 substrate specificity screening, hepsin; conditions: for P2 Position Substrate Activity for hepsin (percent substrate cleavage/proteolysis): residue fixed at P2 position; for P3 Position Various Amino Acids Substrate Activity, hepsin (percent substrate cleavage/proteolysis): residue fixed at P3 position of substrate library; for P4 Position Various Amino Acids Substrate Activity, hepsin (percent substrate proteolysis/cleavage): residue fixed at P4 position of substrate library
T1 construct: purchased R&D Systems 4776-SE-010
T1 sequence (P05981 163-417 limits assumed): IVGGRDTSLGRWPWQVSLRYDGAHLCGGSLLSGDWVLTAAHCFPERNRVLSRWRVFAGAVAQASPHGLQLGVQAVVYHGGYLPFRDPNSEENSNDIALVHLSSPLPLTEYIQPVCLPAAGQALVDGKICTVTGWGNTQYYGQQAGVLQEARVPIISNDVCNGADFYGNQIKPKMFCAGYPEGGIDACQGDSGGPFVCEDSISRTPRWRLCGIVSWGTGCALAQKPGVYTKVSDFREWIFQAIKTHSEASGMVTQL
T1 sequence (P05981 1-162 partner limits assumed): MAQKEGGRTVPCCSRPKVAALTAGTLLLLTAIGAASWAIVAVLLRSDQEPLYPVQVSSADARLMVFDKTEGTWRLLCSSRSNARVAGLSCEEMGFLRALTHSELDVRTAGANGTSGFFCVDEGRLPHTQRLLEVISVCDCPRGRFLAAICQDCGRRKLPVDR

HGFA = molecular target: T2, HGFA (Homo sapiens, UniProt Q04756); test: HyCoSuL P4-P2 substrate specificity screening, HGFA; conditions: for P2 Position Substrate Activity for HGFA (percent substrate cleavage/proteolysis): residue fixed at P2 position; for P3 Position Various Amino Acids Substrate Activity, HGFA (percent substrate cleavage/proteolysis): residue fixed at P3 position of substrate library; for P4 Position Various Amino Acids Substrate Activity, HGFA (percent substrate proteolysis/cleavage): residue fixed at P4 position of substrate library
T2 sequence (Q04756 373-655): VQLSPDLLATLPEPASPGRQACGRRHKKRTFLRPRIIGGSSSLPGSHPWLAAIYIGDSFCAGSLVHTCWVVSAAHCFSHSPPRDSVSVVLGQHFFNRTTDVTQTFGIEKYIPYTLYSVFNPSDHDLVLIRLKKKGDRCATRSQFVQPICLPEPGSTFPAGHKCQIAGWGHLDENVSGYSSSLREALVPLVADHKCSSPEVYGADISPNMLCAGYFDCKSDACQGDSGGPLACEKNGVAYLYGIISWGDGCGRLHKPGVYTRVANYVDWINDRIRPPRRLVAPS

matriptase = molecular target: T3, matriptase (Homo sapiens, UniProt Q9Y5Y6); test: HyCoSuL P4-P2 substrate specificity screening, matriptase; conditions: for P2 Position Substrate Activity for matriptase (percent substrate cleavage/proteolysis): residue fixed at P2 position; for P3 Position Various Amino Acids Substrate Activity, matriptase (percent substrate cleavage/proteolysis): residue fixed at P3 position of substrate library; for P4 Position Various Amino Acids Substrate Activity, matriptase (percent substrate proteolysis/cleavage): residue fixed at P4 position of substrate library
T3 sequence (Q9Y5Y6 1-855): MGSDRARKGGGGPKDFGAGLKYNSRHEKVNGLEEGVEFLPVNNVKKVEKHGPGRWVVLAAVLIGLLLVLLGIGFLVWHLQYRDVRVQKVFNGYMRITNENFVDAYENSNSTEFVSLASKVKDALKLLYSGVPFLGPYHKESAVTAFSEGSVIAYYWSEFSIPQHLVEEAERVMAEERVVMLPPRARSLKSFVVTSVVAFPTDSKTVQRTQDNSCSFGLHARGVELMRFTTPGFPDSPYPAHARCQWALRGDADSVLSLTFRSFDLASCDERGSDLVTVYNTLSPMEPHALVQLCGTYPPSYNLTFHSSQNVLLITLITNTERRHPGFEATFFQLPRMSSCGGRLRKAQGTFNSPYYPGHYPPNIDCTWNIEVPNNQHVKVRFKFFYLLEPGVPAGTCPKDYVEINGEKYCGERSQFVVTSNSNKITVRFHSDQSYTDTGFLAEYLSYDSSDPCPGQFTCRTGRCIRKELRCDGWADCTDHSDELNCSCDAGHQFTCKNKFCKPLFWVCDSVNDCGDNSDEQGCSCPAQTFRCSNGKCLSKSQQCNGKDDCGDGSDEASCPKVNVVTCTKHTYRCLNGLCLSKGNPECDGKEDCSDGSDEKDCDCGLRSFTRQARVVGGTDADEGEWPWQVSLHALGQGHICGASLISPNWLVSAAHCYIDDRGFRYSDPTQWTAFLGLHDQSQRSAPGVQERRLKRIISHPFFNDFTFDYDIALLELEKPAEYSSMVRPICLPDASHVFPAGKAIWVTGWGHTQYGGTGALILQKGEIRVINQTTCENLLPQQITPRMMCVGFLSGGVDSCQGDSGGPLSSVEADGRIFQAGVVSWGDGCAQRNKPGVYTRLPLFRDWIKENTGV

[1] = best recognized amino acid set to 100%
[2] = residue fixed at P3 position of substrate library
[3] = residue fixed at P4 position of substrate library
[4] = P1-Arg HyCoSuL, 100 μM, best recognized amino acid set to 100%
[5] = residue fixed at P3 position, P1-Arg HyCoSuL, 100 μM, best recognized amino acid set to 100%
[6] = residue fixed at P4 position, P1-Arg HyCoSuL, 100 μM, best recognized amino acid set to 100%

Substance	P2 Position Substrate Activity for TMPRSS2 (percent substrate cleavage/proteolysis) (TMPRSS2; [1]) [%]	P3 Position Various Amino Acids Substrate Activity, TMPRSS2 (percent substrate cleavage/proteolysis) (TMPRSS2; [2]) [%]	P4 Position Various Amino Acids Substrate Activity, TMPRSS2 (percent substrate proteolysis/cleavage) (TMPRSS2; [3]) [%]	P2 Position Substrate Activity for hepsin (percent substrate cleavage/proteolysis) (hepsin; [4]) [%]	P3 Position Various Amino Acids Substrate Activity, hepsin (percent substrate cleavage/proteolysis) (hepsin) [%]	P4 Position Various Amino Acids Substrate Activity, hepsin (percent substrate proteolysis/cleavage) (hepsin) [%]	P2 Position Substrate Activity for HGFA (percent substrate cleavage/proteolysis) (HGFA; [4]) [%]	P3 Position Various Amino Acids Substrate Activity, HGFA (percent substrate cleavage/proteolysis) (HGFA) [%]	P4 Position Various Amino Acids Substrate Activity, HGFA (percent substrate proteolysis/cleavage) (HGFA) [%]	P2 Position Substrate Activity for matriptase (percent substrate cleavage/proteolysis) (matriptase; [4]) [%]	P3 Position Various Amino Acids Substrate Activity, matriptase (percent substrate cleavage/proteolysis) (matriptase) [%]	P4 Position Various Amino Acids Substrate Activity, matriptase (percent substrate proteolysis/cleavage) (matriptase) [%]	P3 Position Substrate Activity for TMPRSS2 (percent substrate cleavage/proteolysis) (TMPRSS2; residue fixed at P3 position of substrate library, best recognized amino acid set to 100%) [%]	P4 Position Substrate Activity for TMPRSS2 (percent substrate cleavage/proteolysis) (TMPRSS2; residue fixed at P4 position of substrate library, best recognized amino acid set to 100%) [%]	P3 Position Substrate Activity for hepsin (percent substrate cleavage/proteolysis) (hepsin; [5]) [%]	P4 Position Substrate Activity for hepsin (percent substrate cleavage/proteolysis) (hepsin; [6]) [%]	P3 Position Substrate Activity for HGFA (percent substrate cleavage/proteolysis) (HGFA; [5]) [%]	P4 Position Substrate Activity for HGFA (percent substrate cleavage/proteolysis) (HGFA; [6]) [%]	P3 Position Substrate Activity for matriptase (percent substrate cleavage/proteolysis) (matriptase; [5])	P4 Position Substrate Activity for matriptase (percent substrate cleavage/proteolysis) (matriptase; [6]) [%]
L-Asn	9.49	19.47	21.89	63.72	24.47	25.25	4.79	6.12	8.20	12	14	10	–	–	–	–	–	–	–	–
L-Asp	9.72	25.70	7.77	0.33	3.89	0.22	1.21	2.81	1.90	1	2	1	–	–	–	–	–	–	–	–
L-Cit	0.00	32.80	33.20	32.27	29.53	36.68	6.32	13.41	6.44	1	21	18	–	–	–	–	–	–	–	–

Second part, the substance after the results:

P2 Position Substrate Activity for TMPRSS2 (percent substrate cleavage/proteolysis) (TMPRSS2; [1]) [%]	P3 Position Various Amino Acids Substrate Activity, TMPRSS2 (percent substrate cleavage/proteolysis) (TMPRSS2; [2]) [%]	P4 Position Various Amino Acids Substrate Activity, TMPRSS2 (percent substrate proteolysis/cleavage) (TMPRSS2; [3]) [%]	P2 Position Substrate Activity for hepsin (percent substrate cleavage/proteolysis) (hepsin; [4]) [%]	P3 Position Various Amino Acids Substrate Activity, hepsin (percent substrate cleavage/proteolysis) (hepsin) [%]	P4 Position Various Amino Acids Substrate Activity, hepsin (percent substrate proteolysis/cleavage) (hepsin) [%]	P2 Position Substrate Activity for HGFA (percent substrate cleavage/proteolysis) (HGFA; [4]) [%]	P3 Position Various Amino Acids Substrate Activity, HGFA (percent substrate cleavage/proteolysis) (HGFA) [%]	P4 Position Various Amino Acids Substrate Activity, HGFA (percent substrate proteolysis/cleavage) (HGFA) [%]	P2 Position Substrate Activity for matriptase (percent substrate cleavage/proteolysis) (matriptase; [4]) [%]	P3 Position Various Amino Acids Substrate Activity, matriptase (percent substrate cleavage/proteolysis) (matriptase) [%]	P4 Position Various Amino Acids Substrate Activity, matriptase (percent substrate proteolysis/cleavage) (matriptase) [%]	P3 Position Substrate Activity for TMPRSS2 (percent substrate cleavage/proteolysis) (TMPRSS2; residue fixed at P3 position of substrate library, best recognized amino acid set to 100%) [%]	P4 Position Substrate Activity for TMPRSS2 (percent substrate cleavage/proteolysis) (TMPRSS2; residue fixed at P4 position of substrate library, best recognized amino acid set to 100%) [%]	P3 Position Substrate Activity for hepsin (percent substrate cleavage/proteolysis) (hepsin; [5]) [%]	P4 Position Substrate Activity for hepsin (percent substrate cleavage/proteolysis) (hepsin; [6]) [%]	P3 Position Substrate Activity for HGFA (percent substrate cleavage/proteolysis) (HGFA; [5]) [%]	P4 Position Substrate Activity for HGFA (percent substrate cleavage/proteolysis) (HGFA; [6]) [%]	P3 Position Substrate Activity for matriptase (percent substrate cleavage/proteolysis) (matriptase; [5])	P4 Position Substrate Activity for matriptase (percent substrate cleavage/proteolysis) (matriptase; [6]) [%]	Substance
25.14	31.84	26.30	17.85	28.07	41.30	2.37	8.97	6.68	28	34	31	–	–	–	–	–	–	–	–	L-Ala
5.65	–	–	57.23	–	–	2.08	–	–	0	70	100	27.44	27.99	70.75	80.32	43.98	23.62	62.39% and 70.35%	100.00	L-Arg
